Assay results from US8178708B2, “Lipid derivatives” (Pronova Biopharma Norge AS, priority 2006, dated 2012).

Key:
[1] = molecular target: T1, ligand binding domain of human RXRα (Homo sapiens, UniProt P19793); assay: GAL4-hRXRα LBD luciferase reporter, transient transfection in COS-1 cells; conditions: for Luciferase activation (fold activation) hRXRα: 10 μM, GAL4-hRXRα LBD chimera in COS-1 cells, negative control = 1.00
T1 sequence (P19793 227-458 limits assumed): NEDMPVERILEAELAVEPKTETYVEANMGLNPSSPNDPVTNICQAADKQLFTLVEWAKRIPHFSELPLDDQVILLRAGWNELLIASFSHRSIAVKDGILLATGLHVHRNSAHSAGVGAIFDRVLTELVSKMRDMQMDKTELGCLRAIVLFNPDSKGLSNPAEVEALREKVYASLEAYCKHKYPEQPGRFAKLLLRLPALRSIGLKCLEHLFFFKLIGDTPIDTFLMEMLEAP

[2] = molecular target: T2, ligand binding domain of human PPARα (Homo sapiens, UniProt Q07869); assay: GAL4-hPPARα LBD luciferase reporter, transient transfection in COS-1 cells; conditions: for Luciferase activation (fold activation) hPPARα: 10 μM, GAL4-hPPARα LBD chimera in COS-1 cells, negative control = 1.00; for PPAR selectivity profile (in words): conclusion from table 1, 10 μM
T2 sequence (Q07869 239-466 limits assumed): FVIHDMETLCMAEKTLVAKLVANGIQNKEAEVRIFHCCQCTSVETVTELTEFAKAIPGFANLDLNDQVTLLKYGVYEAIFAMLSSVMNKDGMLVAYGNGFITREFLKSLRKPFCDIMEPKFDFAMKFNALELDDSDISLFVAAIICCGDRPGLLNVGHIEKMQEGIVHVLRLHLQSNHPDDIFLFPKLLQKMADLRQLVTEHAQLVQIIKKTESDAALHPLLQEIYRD

[3] = molecular target: T3, ligand binding domain of human PPARγ (Homo sapiens, UniProt P37231); assay: GAL4-hPPARγ LBD luciferase reporter, transient transfection in COS-1 cells; conditions: 10 μM; GAL4-hPPARγ LBD chimera in COS-1 cells; negative control = 1.00
T3 sequence (P37231 238-503 limits assumed): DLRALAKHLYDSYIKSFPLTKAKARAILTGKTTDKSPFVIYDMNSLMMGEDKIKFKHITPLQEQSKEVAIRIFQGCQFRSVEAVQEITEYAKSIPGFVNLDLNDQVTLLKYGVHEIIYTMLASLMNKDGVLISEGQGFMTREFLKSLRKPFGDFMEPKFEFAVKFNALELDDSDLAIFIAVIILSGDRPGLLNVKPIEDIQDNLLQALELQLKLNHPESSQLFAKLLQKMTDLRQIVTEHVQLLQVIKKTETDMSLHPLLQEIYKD

[4] = molecular target: T4, ligand binding domain of human PPARδ (Homo sapiens, UniProt Q03181); assay: GAL4-hPPARδ LBD luciferase reporter, transient transfection in COS-1 cells; conditions: 10 μM; GAL4-hPPARδ LBD chimera in COS-1 cells; negative control = 1.00
T4 sequence (Q03181 211-439 limits assumed): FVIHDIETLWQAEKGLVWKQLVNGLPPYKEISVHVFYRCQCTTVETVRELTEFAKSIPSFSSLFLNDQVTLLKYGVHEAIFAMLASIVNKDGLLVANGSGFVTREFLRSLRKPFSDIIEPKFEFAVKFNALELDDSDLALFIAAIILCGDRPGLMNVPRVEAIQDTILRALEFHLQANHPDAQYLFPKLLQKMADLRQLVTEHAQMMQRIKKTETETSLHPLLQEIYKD

NF-κB = assay: Inhibition of NF-κB in human monocytic cell lines (U937-3xkB-LUC luciferase assay); assay type: cell-based; conditions: U937-3xkB-LUC cells, NF-κB induced by LPS or human TNF-α; FIG. 1
Description: The novel compounds and DHA were solubilized to 12.5 μM in DMSO flushed with argon and stored at −20° C. Dexamethasone 10 μM in DMSO was used as positive control.
U937-3xkB-LUC cells, (Carlsen, J. Immun, 2002), were cultured in RPMI-1640 medium with L-glutamine ([…]), penicillin (50 U/ml), streptomycin ([…]), hygromycin (75 ug/ml), 10% Fetal Bovine Serum at 37° C. and 5% CO2. In the Cells were seeded in 24-well plates wherein 1% Fetal Bovin Serum was added to the medium. NF-κB activity was induced by lipopolysaccharide (LPS) (1 ug/ml) or human TNF-α (10 ng/ml). Cell viability was measured by trypan blue staining.
Luciferase activity was measured by imaging with a IVIS Imaging System from Xenogen Corp., USA. The Luminescence was detected after 1 min. and 5 min after addition of 0.2 mg d-luciferin per. ml cell medium. Number of photons in each well pr. second was calculated using Living Image Software (Xenogen Corp., USA).

## CC/C=C\C/C=C\C/C=C\C/C=C\C/C=C\CCC/C(C)=C/C(=O)O [Compound 4, (2E,7Z,10Z,13Z,16Z,19Z)-3-methyl-docosa-2,7,10,13,16,19-hexaenoic acid]
[1]
  Luciferase activation (fold activation) hRXRα: 0.90 ± 0.08 fold activation
[2]
  Luciferase activation (fold activation) hPPARα: 4.51 ± 0.52 fold activation
  PPAR selectivity profile (in words): selective PPARα modulators/activators
[3]
  Luciferase activation (fold activation) hPPARγ: 1.56 ± 0.12 fold activation
[4]
  Luciferase activation (fold activation) hPPARδ: 1.28 ± 0.08 fold activation

## CC/C=C\C/C=C\C/C=C\C/C=C\CC/C=C/C=C(\C)C(=O)O [Compound 11, (2E,4E,8Z,11Z,14Z,17Z)-2-methyl-icosa-2,4,8,11,14,17-hexaenoic acid]
[1]
  Luciferase activation (fold activation) hRXRα: 0.84 ± 0.09 fold activation
[2]
  Luciferase activation (fold activation) hPPARα: 6.79 ± 0.21 fold activation
  PPAR selectivity profile (in words): selective PPARα modulators/activators
[3]
  Luciferase activation (fold activation) hPPARγ: 1.67 ± 0.11 fold activation
[4]
  Luciferase activation (fold activation) hPPARδ: 1.17 ± 00.20 fold activation

## CC/C=C\C/C=C\C/C=C\C/C=C\CC/C=C/C=C/C(=O)O [Compound 13, (2E,4E,8Z,11Z,14Z,17Z)-icosa-2,4,8,11,14,17-hexaenoic acid]
NF-κB
  Inhibition of the NF-κB pathway (in words): potent inhibitors of the NF-κB pathway
[1]
  Luciferase activation (fold activation) hRXRα: 0.81 ± 0.05 fold activation
[2]
  Luciferase activation (fold activation) hPPARα: 4.89 ± 0.31 fold activation
  PPAR selectivity profile (in words): selective PPARα modulators/activators
[3]
  Luciferase activation (fold activation) hPPARγ: 1.63 ± 0.06 fold activation
[4]
  Luciferase activation (fold activation) hPPARδ: 1.11 ± 0.16 fold activation

## CC/C=C\C/C=C\C/C=C\C/C=C\CC/C=C/C=C/C(C)=C/C(=O)O [Compound 25, (2E,4E,6E,10Z,13Z,16Z,19Z)-3-methyl-docosa-2,4,6,10,13,16,19-heptaenoic acid]
NF-κB
  Inhibition of the NF-κB pathway (in words): potent inhibitors of the NF-κB pathway
[1]
  Luciferase activation (fold activation) hRXRα: 1.57 ± 0.08 fold activation
[1]; conclusion from table 1, 10 μM
  RXRα ligand activity (in words): RXRα ligand
[2]
  Luciferase activation (fold activation) hPPARα: 8.27 ± 0.81 fold activation
  PPAR selectivity profile (in words): PPAR pan modulators/activators
[3]
  Luciferase activation (fold activation) hPPARγ: 4.32 ± 0.29 fold activation
[4]
  Luciferase activation (fold activation) hPPARδ: 1.47 ± 0.38 fold activation

## Cc1cccc(Nc2cc(Cl)nc(SCC(=O)O)n2)c1C [Wy14643, reference compound]
[2]
  Luciferase activation (fold activation) hPPARα: 2.27 ± 0.04 fold activation
